This passage reports IC50 results from patent publication US10689377B2 (Mirati Therapeutics, Inc., priority 2017, dated 2020).

SMILES strings stand for the structures.

Chain of KRas G12C (P01116 1-188 isoform P01116-2 G12C): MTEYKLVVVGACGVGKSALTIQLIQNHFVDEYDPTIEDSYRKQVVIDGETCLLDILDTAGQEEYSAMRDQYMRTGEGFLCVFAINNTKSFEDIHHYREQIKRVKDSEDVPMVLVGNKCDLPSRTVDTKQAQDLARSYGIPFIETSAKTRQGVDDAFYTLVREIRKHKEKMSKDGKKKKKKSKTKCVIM

The experiment addresses KRas G12C (Homo sapiens, UniProt P01116, G12C). The experiment in a line: Cellular inhibition of KRas G12C measured by Phospho-ERK in NCI-H358 cells. Type of experiment: cell-based. The conditions noted are these: pERK(Thr202/Tyr204) normalized with GAPDH, NCI-H358 cells, 3 hours; read-out: IC50. In a few lines:
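Readout is pERK(Thr202/Tyr204) immunofluorescence normalized to GAPDH, expressed as percent of DMSO control and fitted with a 4-parameter curve for IC50. Attached NCI-H358 cells received compound for 3 hours in 0.5% DMSO, followed by fixation and methanol permeabilization.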
A word on the IC50: it is the concentration at which inhibition is half-maximal. Regarding `C=CC(=O)N1CCN(c2nc(OCCCN3CCOCC3)nc3c2CCN(c2cc(O)cc(C)c2C)C3)CC1` [Example 213, 1-(4-(7-(5-hydroxy-2,3-dimethylphenyl)-2-(3-morpholinopropoxy)-5,6,7,8-tetrahydropyrido[3,4-d]pyrimidin-4-yl)piperazin-1-yl)prop-2-en-1-one], the IC50 is more than 1000 nM.
In the case of `C=CC(=O)N1CCN(c2nc(OCCCN3CCOCC3)nc3c2CCN(c2cc(O)cc4ccccc24)C3=O)CC1` [Example 121, 4-(4-acryloylpiperazin-1-yl)-7-(3-hydroxynaphthalen-1-yl)-2-(3-morpholinopropoxy)-6,7-dihydropyrido[3,4-d]pyrimidin-8(5H)-one], the half-maximal inhibitory concentration (IC50) was more than 1000 nM.
Next, `C=CC(=O)N1CCN(c2nc(O[C@H](C)CN(C)C)nc3c2CCN(c2c(O)ccc(C)c2F)C3)CC1` [Example 84, (R)-1-(4-(2-((1-(dimethylamino)propan-2-yl)oxy)-7-(2-fluoro-6-hydroxy-3-methylphenyl)-5,6,7,8-tetrahydropyrido[3,4-d]pyrimidin-4-yl)piperazin-1-yl)prop-2-en-1-one]: more than 1000 nM; `C=C(F)C(=O)N1CCN(c2nc(OC[C@@H]3CC(C)(C)CN3C)nc3c2CCN(c2cccc4cccc(C)c24)C3)C[C@@H]1CC#N` [Example 615, 2-[(2S)-1-(2-fluoroprop-2-enoyl)-4-[7-(8-methyl-1-naphthyl)-2-[[(2S)-1,4,4-trimethylpyrrolidin-2-yl]methoxy]-6,8-dihydro-5H-pyrido[3,4-d]pyrimidin-4-yl]piperazin-2-yl]acetonitrile]: 0.1 to 1000 nM.
Take `CN1CC[C@@H](COc2nc3c(c(N4CCN(C(=O)/C=C/CF)[C@@H](CC#N)C4)n2)CCN(c2cccc4cccc(Cl)c24)C3)C1` [Example 584, 2-[(2S)-4-[7-(8-chloro-1-naphthyl)-2-[[(3R)-1-methylpyrrolidin-3-yl]methoxy]-6,8-dihydro-5H-pyrido[3,4-d]pyrimidin-4-yl]-1-[(E)-4-fluorobut-2-enoyl]piperazin-2-yl]acetonitrile]: the IC50 lay in the range of 0.1 to 1000 nM.
Next, `C=CC(=O)N1CCN(c2nc(OCCN(CC)CC)nc3c2CCN(c2c(C)ccc4[nH]ncc24)C3)CC1` [Example 163, 1-(4-(2-(2-(diethylamino)ethoxy)-7-(5-methyl-1H-indazol-4-yl)-5,6,7,8-tetrahydropyrido[3,4-d]pyrimidin-4-yl)piperazin-1-yl)prop-2-en-1-one]: more than 1000 nM; `C=CC(=O)N1CCN(c2nc(OC[C@@H]3CCC(=O)N3)nc3c2CCN(c2cc(O)cc4ccccc24)C3)CC1` [Example 57, (S)-5-(((4-(4-acryloylpiperazin-1-yl)-7-(3-hydroxynaphthalen-1-yl)-5,6,7,8-tetrahydropyrido[3,4-d]pyrimidin-2-yl)oxy)methyl)pyrrolidin-2-one]: more than 1000 nM; `C=CC(=O)N1CCN(c2nc(OCC3CN(C)CCN3)nc3c2CCN(c2cc(O)cc4ccccc24)C3)CC1` (centres unmarked) [Example 80, 1-(4-(7-(3-hydroxynaphthalen-1-yl)-2-((4-methylpiperazin-2-yl)methoxy)-5,6,7,8-tetrahydropyrido[3,4-d]pyrimidin-4-yl)piperazin-1-yl)prop-2-en-1-one]: more than 1000 nM.
Turning to `C=CC(=O)N1CCN(c2nc(OC[C@@H]3C[C@@H](O)CN3C)nc3c2CCN(c2cccc(Cl)c2C(F)(F)F)C3)C[C@@H]1CC#N` [Example 426, 2-((S)-1-acryloyl-4-(7-(3-chloro-2-(trifluoromethyl)phenyl)-2-(((2S,4R)-4-hydroxy-1-methylpyrrolidin-2-yl)methoxy)-5,6,7,8-tetrahydropyrido[3,4-d]pyrimidin-4-yl)piperazin-2-yl)acetonitrile], the IC50 was in the range of 0.1 to 1000 nM.
Consider `C=CC(=O)N1CCN(c2nc(OC[C@@H]3CCCN3C)nc3c2CCN(c2c(F)cccc2C(F)(F)F)C3)CC1CC#N` (some centres unmarked) [Example 412], for which the concentration for half-maximal inhibition (IC50) was in the range of 0.1 to 1000 nM.
The figure for `C=CC(=O)N1CCN(c2nc(OC[C@@H]3CCCN3C)nc3c2CCN(c2cccc4ncccc24)C3)CC1CC#N` (stereo partly drawn) [Example 264, 2-[4-[2-[[(2S)-1-methylpyrrolidin-2-yl]methoxy]-7-(5-quinolyl)-6,8-dihydro-5H-pyrido[3,4-d]pyrimidin-4-yl]-1-prop-2-enoyl-piperazin-2-yl]acetonitrile] is more than 1000 nM.
The figure for `C=CC(=O)N1CCN(c2nc(OC[C@@H]3CCCN3C)nc3c2CCN(c2cc(O)cc4ccccc24)C3)C[C@@H]1CC#N` [Example 317] is 0.1 to 1000 nM; for `C=CC(=O)N1CCN(c2nc(OC[C@@H]3CCNC3)nc3c2CCN(c2cc(O)cc4ccccc24)C3)CC1` [Example 146, 1-[4-[7-(3-hydroxy-1-naphthyl)-2-[[(3R)-pyrrolidin-3-yl]methoxy]-6,8-dihydro-5H-pyrido[3,4-d]pyrimidin-4-yl]piperazin-1-yl]prop-2-en-1-one] it is more than 1000 nM.
Next, `C=CC(=O)N1CCN(c2nc(N3CCCC3)nc3c2CCN(c2cc(O)cc4ccccc24)C3)CC1` [Example 119, 1-(4-(7-(3-hydroxynaphthalen-1-yl)-2-(pyrrolidin-1-yl)-5,6,7,8-tetrahydropyrido[3,4-d]pyrimidin-4-yl)piperazin-1-yl)prop-2-en-1-one]: more than 1000 nM.
For the molecule `C=CC(=O)N1CCN(c2nc(OC[C@H]3CCCN3C)nc3c2CCN(c2cc(O)cc4ccccc24)C3)[C@@H](C)C1` [Example 203, 1-((S)-4-(7-(3-hydroxynaphthalen-1-yl)-2-(((R)-1-methylpyrrolidin-2-yl)methoxy)-5,6,7,8-tetrahydropyrido[3,4-d]pyrimidin-4-yl)-3-methylpiperazin-1-yl)prop-2-en-1-one], the IC50 lay in the range of 0.1 to 1000 nM.
Next, `C=CC(=O)N1CCN(c2nc(OC[C@@H]3CCCN3C(C)C)nc3c2CCN(c2cccc4ccccc24)C3)CC1CC#N` (stereo partly drawn) [Example 285, 2-[4-[2-[[(2S)-1-isopropylpyrrolidin-2-yl]methoxy]-7-(1-naphthyl)-6,8-dihydro-5H-pyrido[3,4-d]pyrimidin-4-yl]-1-prop-2-enoyl-piperazin-2-yl]acetonitrile]: 0.1 to 1000 nM; `C=CC(=O)N1CCN(c2nc(OC[C@@H]3CCCN3C)nc3c2CCN(c2ccccc2Cl)C3)CC1CC#N` (some centres unmarked) [Example 229]: 0.1 to 1000 nM; `C[C@H](CN(C)C)Oc1nc2c(c(N3CCN(C(=O)/C=C/CN(C)C)CC3)n1)CCN(c1cc(O)cc3ccccc13)C2` [Example 122, (R,E)-4-(dimethylamino)-1-(4-(2-((1-(dimethylamino)propan-2-yl)oxy)-7-(3-hydroxynaphthalen-1-yl)-5,6,7,8-tetrahydropyrido[3,4-d]pyrimidin-4-yl)piperazin-1-yl)but-2-en-1-one bis-trifluoroacetate]: more than 1000 nM.
On to `C=CC(=O)N1CCN(c2nc(OCC(C)N(C)C)nc3c2CCN(c2cc(O)cc4ccccc24)C3)CC1` (centres unmarked) [Example 73, 1-(4-(2-(2-(dimethylamino)propoxy)-7-(3-hydroxynaphthalen-1-yl)-5,6,7,8-tetrahydropyrido[3,4-d]pyrimidin-4-yl)piperazin-1-yl)prop-2-en-1-one], for which the IC50 is more than 1000 nM.
Next, `C=CC(=O)N1CCN(c2nc(OC(C)CCN3CCOCC3)nc3c2CCN(c2cc(O)cc4ccccc24)C3)CC1` (centres unmarked) [Example 93, 1-(4-(7-(3-hydroxynaphthalen-1-yl)-2-((4-morpholinobutan-2-yl)oxy)-5,6,7,8-tetrahydropyrido[3,4-d]pyrimidin-4-yl)piperazin-1-yl)prop-2-en-1-one]: more than 1000 nM; `C=CC(=O)N1CCN(c2nc(OC[C@H]3CCN(C)C3)nc3c2CCN(c2cc(O)cc4ccccc24)C3)CC1` [Example 188, (S)-1-(4-(7-(3-hydroxynaphthalen-1-yl)-2-((1-methylpyrrolidin-3-yl)methoxy)-5,6,7,8-tetrahydropyrido[3,4-d]pyrimidin-4-yl)piperazin-1-yl)prop-2-en-1-one]: 0.1 to 1000 nM.
As to `C=CC(=O)N1CCN(c2nc(OC[C@@H]3CCCN3C)nc3c2CCN(c2c(Cl)ccc4[nH]ncc24)C3)CC1` [Example 250, 1-[4-[7-(5-chloro-1H-indazol-4-yl)-2-[[(2S)-1-methylpyrrolidin-2-yl]methoxy]-6,8-dihydro-5H-pyrido[3,4-d]pyrimidin-4-yl]piperazin-1-yl]prop-2-en-1-one], the 50% inhibitory concentration (IC50) was more than 1000 nM.
The figure for `C=CC(=O)N1CCN(c2nc(OC[C@@H]3CCCN(C)C3)nc3c2CCN(c2cc(O)cc4ccccc24)C3)CC1` [Example 192, (R)-1-(4-(7-(3-hydroxynaphthalen-1-yl)-2-((1-methylpiperidin-3-yl)methoxy)-5,6,7,8-tetrahydropyrido[3,4-d]pyrimidin-4-yl)piperazin-1-yl)prop-2-en-1-one] is 0.1 to 1000 nM; for `C=C(F)C(=O)N1CCN(c2nc(OC[C@@H]3C[C@@H](F)CN3C)nc3c2CCN(c2c(C)c(C)cc4[nH]ncc24)C3)C[C@@H]1CC#N` [Example 606, 2-((S)-4-(7-(5,6-dimethyl-1H-indazol-4-yl)-2-(((2S,4R)-4-fluoro-1-methylpyrrolidin-2-yl)methoxy)-5,6,7,8-tetrahydropyrido[3,4-d]pyrimidin-4-yl)-1-(2-fluoroacryloyl)piperazin-2-yl)acetonitrile] it is 0.1 to 1000 nM; for `C=CC(=O)N1CCN(c2nc(OCC(C)(C)N(C)C)nc3c2CCN(c2cccc4ccccc24)C3)CC1CC#N` (centres unmarked) [Example 397, 2-(1-acryloyl-4-(2-(2-(dimethylamino)-2-methylpropoxy)-7-(naphthalen-1-yl)-5,6,7,8-tetrahydropyrido[3,4-d]pyrimidin-4-yl)piperazin-2-yl)acetonitrile] it is 0.1 to 1000 nM.
Next, `C=CC(=O)N1CC2(C1)CN(c1ncnc3c1CC(=O)N(c1cc(O)cc4ccccc14)C3)C2` [Example 114, 4-(6-acryloyl-2,6-diazaspiro[3.3]heptan-2-yl)-7-(3-hydroxynaphthalen-1-yl)-7,8-dihydropyrido[3,4-d]pyrimidin-6(5H)-one]: more than 1000 nM.
